Test results: US20230089867A1, “CYCLIC PENTAMER COMPOUNDS AS PROPROTEIN CONVERTASE SUBTILISIN/KEXIN TYPE 9 (PCSK9) INHIBITORS FOR THE TREATMENT OF METABOLIC DISORDER” (Novartis AG, priority 2018, published 2023)

Molecular target: human PCSK9 (Homo sapiens, UniProt Q8NBP7)
Test: PCSK9 ligand binding TR-FRET assay (interference with binding of human PCSK9 to human LDLR)
Details: for Max % inhibition: PCSK9 FRET assay, efficacy (Amax), 100% = 1 uM unlabeled human PCSK9, 0% = DMSO; for IC50: TR-FRET, human PCSK9 Alexa Fluor 647 / human LDLR extracellular domain-Europium Kryptate, read-out: PCSK9 FRET Assay IC50
Outline: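 Threefold compound dilutions were pre-incubated 30 min with PCSK9, after which 4 nM Europium Kryptate-tagged human LDLR ectodomain was added for a further 2 h.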

Chain of human PCSK9 (Q8NBP7 153-692): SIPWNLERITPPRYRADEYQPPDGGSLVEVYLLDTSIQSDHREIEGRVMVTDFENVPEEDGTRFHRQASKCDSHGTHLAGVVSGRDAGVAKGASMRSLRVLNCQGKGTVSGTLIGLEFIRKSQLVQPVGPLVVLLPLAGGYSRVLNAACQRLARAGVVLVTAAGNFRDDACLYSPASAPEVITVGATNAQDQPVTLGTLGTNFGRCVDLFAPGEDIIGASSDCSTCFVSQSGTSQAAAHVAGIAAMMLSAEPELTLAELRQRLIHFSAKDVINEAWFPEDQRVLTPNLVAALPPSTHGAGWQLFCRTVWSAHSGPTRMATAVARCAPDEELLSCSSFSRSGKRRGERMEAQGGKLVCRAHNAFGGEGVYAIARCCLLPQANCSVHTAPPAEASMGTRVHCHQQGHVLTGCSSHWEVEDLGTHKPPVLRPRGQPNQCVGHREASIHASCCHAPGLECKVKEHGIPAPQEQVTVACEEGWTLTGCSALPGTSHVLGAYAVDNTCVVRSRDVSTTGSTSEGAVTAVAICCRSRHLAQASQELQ
Chain of human PCSK9 (Q8NBP7 31-152 partner limits assumed): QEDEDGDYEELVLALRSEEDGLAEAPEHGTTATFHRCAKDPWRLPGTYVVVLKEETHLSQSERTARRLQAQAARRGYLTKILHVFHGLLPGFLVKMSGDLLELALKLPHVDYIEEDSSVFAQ

SMILES | Max % inhibition [%] | IC50 [nM]
COC[C@@H]1NC(=O)[C@H](C)N(Cc2ccc(Cl)cc2Oc2ccc(-c3cnc(CN(C)C)n3C)cc2)C(=O)C[C@@H](Cc2cccc(C(F)F)c2)C(=O)N(C)[C@@H](C)CNC(=O)C[C@H](Cc2ccc(Cl)cc2)N(C)C1=O [Compound 56, (2S,5S,8S,13S,16R)-1-(4-chloro-2-(4-(2-((dimethylamino)methyl)-1-methyl-1H-imidazol-5-yl)phenoxy)benzyl)-8-(4-chlorobenzyl)-16-(3-(difluoromethyl)benzyl)-5-(methoxymethyl)-2,7,13,14-tetramethyl-1,4,7,11,14-pentaazacyclooctadecane-3,6,10,15,18-pentaone] | 101.80 | 2.6
COC[C@@H]1NC(=O)[C@H](C)N(Cc2ccc(Cl)cc2Oc2ccc(-c3cnc(CN(C)C)n3C)cc2)C(=O)C[C@@H](Cc2ccc(C(F)F)cc2)C(=O)N(C)[C@@H](C)CNC(=O)C[C@H](Cc2ccc(Cl)cc2)N(C)C1=O [Compound 57, (2S,5S,8S,13S,16R)-1-(4-chloro-2-(4-(2-((dimethylamino)methyl)-1-methyl-1H-imidazol-5-yl)phenoxy)benzyl)-8-(4-chlorobenzyl)-16-(4-(difluoromethyl)benzyl)-5-(methoxymethyl)-2,7,13,14-tetramethyl-1,4,7,11,14-pentaazacyclooctadecane-3,6,10,15,18-pentaone] | 95.83 | 2.1
COC[C@@H]1NC(=O)[C@H](C)N(Cc2ccc(Cl)cc2Oc2ccc(-c3cnc(CN(C)C)n3C)cc2)C(=O)C[C@@H](Cc2ccccc2)C(=O)N(C)C2CCOCC2NC(=O)CC(Cc2ccc(Cl)cc2)N(C)C1=O (stereo partly drawn) [Compound 61, (4S,7S,10S,14R)-14-benzyl-11-(4-chloro-2-(4-(2-((dimethylamino)methyl)-1-methyl-1H-imidazol-5-yl)phenoxy)benzyl)-4-(4-chlorobenzyl)-7-(methoxymethyl)-5,10,16-trimethyltetradecahydro-1H-pyrano[3,4-1][1,4,7,11,14]pentaazacyclooctadecine-2,6,9,12,15(3H)-pentaone] | 99.31 | 1.4
COC[C@@H]1NC(=O)[C@H](C)N(Cc2c(Oc3ccc(-c4cnc(CN(C)C)n4C)cc3)cccc2OC(F)F)C(=O)C[C@@H](C)C(=O)N(C)[C@@H](C)CNC(=O)C[C@H](Cc2ccc(Cl)cc2)N(C)C1=O [Compound 62, (5S,8S,13S,16R)-8-(4-chlorobenzyl)-1-(2-(difluoromethoxy)-6-(4-(2-((dimethylamino)methyl)-1-methyl-1H-imidazol-5-yl)phenoxy)benzyl)-5-(methoxymethyl)-2,7,13,14,16-pentamethyl-1,4,7,11,14-pentaazacyclooctadecane-3,6,10,15,18-pentaone] | 88.46 | 16.8
COC[C@@H]1NC(=O)[C@H](C)N(Cc2ccc(Cl)cc2Oc2ccc(-c3cnc(CN4CCCC4)n3C)cc2)C(=O)C[C@@H](Cc2ccn(C(F)F)n2)C(=O)N(C)[C@@H](C)CNC(=O)C[C@H](Cc2ccc(Cl)cc2)N(C)C1=O [Compound 63, (2S,5S,8S,13S)-1-(4-chloro-2-(4-(1-methyl-2-(pyrrolidin-1-ylmethyl)-1H-imidazol-5-yl)phenoxy)benzyl)-8-(4-chlorobenzyl)-16-((1-(difluoromethyl)-1H-pyrazol-3-yl)methyl)-5-(methoxymethyl)-2,7,13,14-tetramethyl-1,4,7,11,14-pentaazacyclooctadecane-3,6,10,15,18-pentaone] | 103.93 | 87.3
COC[C@@H]1NC(=O)[C@H](C)N(Cc2ccc(Cl)cc2Oc2ccc(-c3cnc(CN(C)C)n3C)cc2)C(=O)C[C@@H](Cc2ccccc2)C(=O)N(C)CC(C)(C)NC(=O)C[C@H](Cc2ccc(Cl)cc2)N(C)C1=O [Compound 65, (2S,5S,8S,16R)-16-benzyl-1-(4-chloro-2-(4-(2-((dimethylamino)methyl)-1-methyl-1H-imidazol-5-yl)phenoxy)benzyl)-8-(4-chlorobenzyl)-5-(methoxymethyl)-2,7,12,12,14-pentamethyl-1,4,7,11,14-pentaazacyclooctadecane-3,6,10,15,18-pentaone] | 92.63 | 189
COC[C@@H]1NC(=O)[C@H](C)N(Cc2ccc(Cl)cc2Oc2ccc(-c3cnc(CN4CCCC4)n3C)cc2)C(=O)C[C@@H](Cc2cccc(F)c2F)C(=O)N(C)[C@@H](C)CNC(=O)C[C@H](Cc2ccc(Cl)cc2)N(C)C1=O [Compound 67, (2S,5S,8S,13S,16R)-1-(4-chloro-2-(4-(1-methyl-2-(pyrrolidin-1-ylmethyl)-1H-imidazol-5-yl)phenoxy)benzyl)-8-(4-chlorobenzyl)-16-(2,3-difluorobenzyl)-5-(methoxymethyl)-2,7,13,14-tetramethyl-1,4,7,11,14-pentaazacyclooctadecane-3,6,10,15,18-pentaone] | 96.63 | 0.6
CCOc1ncc(-c2ccc(Oc3cc(Cl)ccc3CN3C(=O)C[C@@H](Cc4ccccc4)C(=O)N(C)[C@@H](C)CNC(=O)C[C@H](Cc4ccc(Cl)cc4)N(C)C(=O)[C@H](COC)NC(=O)[C@@H]3C)cc2)n1C [Compound 68, (2S,5S,8S,13S,16R)-16-benzyl-1-(4-chloro-2-(4-(2-ethoxy-1-methyl-1H-imidazol-5-yl)phenoxy)benzyl)-8-(4-chlorobenzyl)-5-(methoxymethyl)-2,7,13,14-tetramethyl-1,4,7,11,14-pentaazacyclooctadecane-3,6,10,15,18-pentaone] | 77.84 | 30.5
COC[C@@H]1NC(=O)[C@H](C)N(Cc2ccc(Cl)cc2Oc2ccc(-c3cnc(OC)nc3)cc2)C(=O)C[C@@H](Cc2ccccc2)C(=O)N(C)[C@@H](C)CNC(=O)C[C@H](Cc2ccc(Cl)cc2)N(C)C1=O [Compound 69, (2S,5S,8S,13S,16R)-16-benzyl-1-(4-chloro-2-(4-(2-methoxypyrimidin-5-yl)phenoxy)benzyl)-8-(4-chlorobenzyl)-5-(methoxymethyl)-2,7,13,14-tetramethyl-1,4,7,11,14-pentaazacyclooctadecane-3,6,10,15,18-pentaone] | 64.09 | 43

Continued by falling IC50, values first:

Max % inhibition [%] | IC50 [nM] | SMILES
91.88 | 77.2 | C[C@H]1CNC(=O)C[C@H](Cc2ccc(Cl)cc2)N(C)C(=O)[C@H](CO)NC(=O)[C@H](C)N(Cc2ccccc2Oc2ccc(-c3cnc(CN(C)C)n3C)cc2)C(=O)CCC(=O)N1C [Compound 66, (2S,5S,8S,13S)-8-(4-chlorobenzyl)-1-(2-(4-(2-((dimethylamino)methyl)-1-methyl-1H-imidazol-5-yl)phenoxy)benzyl)-5-(hydroxymethyl)-2,7,13,14-tetramethyl-1,4,7,11,14-pentaazacyclooctadecane-3,6,10,15,18-pentaone]
102.12 | 12.9 | COC[C@@H]1NC(=O)[C@H](C)N(Cc2ccc(Cl)cc2Oc2ccc(-c3cnc(CN(C)C)n3C)cc2)C(=O)C[C@@H](Cc2ccccc2)C(=O)N(C)[C@@H](C(=O)OC)CNC(=O)C[C@H](Cc2ccc(Cl)cc2)N(C)C1=O [Compound 71, (2S,5S,8S,13R,16R)-methyl 16-benzyl-1-(4-chloro-2-(4-(2-((dimethylamino)methyl)-1-methyl-1H-imidazol-5-yl)phenoxy)benzyl)-8-(4-chlorobenzyl)-5-(methoxymethyl)-2,7,14-trimethyl-3,6,10,15,18-pentaoxo-1,4,7,11,14-pentaazacyclooctadecane-13-carboxylate]
58.77 | 9.3 | COC[C@@H]1NC(=O)[C@H](C)N(Cc2ccc(Cl)cc2Oc2ccc(-c3c(C)nc(CN4CCCC4)n3C)cc2)C(=O)C[C@@H](Cc2ccccc2)C(=O)N(C)[C@@H](C)CNC(=O)C[C@H](Cc2ccc(Cl)cc2)N(C)C1=O [Compound 55, (2S,5S,8S,13S,16R)-16-benzyl-1-(4-chloro-2-(4-(1,4-dimethyl-2-(pyrrolidin-1-ylmethyl)-1H-imidazol-5-yl)phenoxy)benzyl)-8-(4-chlorobenzyl)-5-(methoxymethyl)-2,7,13,14-tetramethyl-1,4,7,11,14-pentaazacyclooctadecane-3,6,10,15,18-pentaone]
79.08 | 9 | COC[C@@H]1NC(=O)[C@H](C)N(Cc2ccc(Cl)cc2Oc2ccc(-c3cnc(CN(C)C)n3C)cc2)C(=O)C[C@@H](C)C(=O)N(C)[C@H]2CCCC[C@@H]2NC(=O)C[C@H](Cc2ccc(Cl)cc2)N(C)C1=O [Compound 64, (4S,7S,10S,14R,16aS,20aS)-11-(4-chloro-2-(4-(2-((dimethylamino)methyl)-1-methyl-1H-imidazol-5-yl)phenoxy)benzyl)-4-(4-chlorobenzyl)-7-(methoxymethyl)-5,10,14,16-tetramethylhexadecahydrobenzo[l][1,4,7,11,14]pentaazacyclooctadecine-2,6,9,12,15(3H)-pentaone]
82.23 | 2.9 | COC[C@@H]1NC(=O)[C@H](C)N(Cc2ccc(Cl)cc2Oc2ccc(-c3cnc(CN4CC[C@@H](F)C4)n3C)cc2)C(=O)C[C@@H](Cc2ccccc2)C(=O)N(C)[C@@H](C)CNC(=O)C[C@H](Cc2ccc(Cl)cc2)N(C)C1=O [Compound 60, (2S,5S,8S,13S,16R)-16-benzyl-1-(4-chloro-2-(4-(2-(((R)-3-fluoropyrrolidin-1-yl)methyl)-1-methyl-1H-imidazol-5-yl)phenoxy)benzyl)-8-(4-chlorobenzyl)-5-(methoxymethyl)-2,7,13,14-tetramethyl-1,4,7,11,14-pentaazacyclooctadecane-3,6,10,15,18-pentaone]
101.10 | 0.9 | CC[C@H]1C(=O)N[C@@H](COC)C(=O)N(C)[C@@H](Cc2ccc(Cl)cc2)CC(=O)NC[C@H](C)N(C)C(=O)[C@H](Cc2ccccc2)CC(=O)N1Cc1ccc(Cl)cc1Oc1ccc(-c2cnc(CN(C)C)n2C)cc1 [Compound 70, (2S,5S,8S,13S,16R)-16-benzyl-1-(4-chloro-2-(4-(2-((dimethylamino)methyl)-1-methyl-1H-imidazol-5-yl)phenoxy)benzyl)-8-(4-chlorobenzyl)-2-ethyl-5-(methoxymethyl)-7,13,14-trimethyl-1,4,7,11,14-pentaazacyclooctadecane-3,6,10,15,18-pentaone]
